The numbers were not newly measured in PubChem BioAssay AID1259410 (Chemical Carcinogenesis Research Information System (CCRIS), 2018), which cites them from elsewhere.

The structures appear in SMILES notation.

This series relates to rodent tumor promotion studies, tumor incidence. Nature of the series: CCRIS tumor promotion studies.

On to `C#C[C@]1(O)CC[C@H]2[C@@H]3CCc4cc(O)ccc4[C@H]3CC[C@@]21C`, for which the outcome was “gallbladder: adenoma or adenocarcinoma” (Carcinogen: 3,2'-DIMETHYL-4-AMINOBIPHENYL, 13394-86-0, Doses [Carcinogen]: 100 MG/KG 1/WK FOR 20 WK, Doses [Promoter]: 0, 0.75 PPM IN DIET FOR DURATION OF STUDY (STUDY DURATION: 50 WK), Route [Carcinogen]: SUBCUTANEOUS, Route [Promoter]: ORAL, Species: HAMSTER, Strain/Sex: SYRIAN/FEMALE); “gallbladder: adenoma or adenocarcinoma” (Carcinogen: 3,2'-DIMETHYL-4-AMINOBIPHENYL, 13394-86-0, Doses [Carcinogen]: 100 MG/KG 1/WK FOR 20 WK, Doses [Promoter]: 0, 0.75 PPM IN DIET FOR DURATION OF STUDY (STUDY DURATION: 50 WK), Route [Carcinogen]: SUBCUTANEOUS, Route [Promoter]: ORAL, Species: HAMSTER, Strain/Sex: SYRIAN/MALE); “negative” (Carcinogen: 7,12-DIMETHYLBENZ[A]ANTHRACENE (DMBA) [57-97-6]AND N-BIS(2-HYROXYPROPYL)NITROSOSAMINE (DHPN) [53609-64-6], Doses [Carcinogen]: DMBA-SINGLE DOSE OF 50 MG/KG BW AT 7 WKS OF AGE, DHPN- 0.2% IN WATER WKS 6-14 OF AGE (STUDY DURATION: 27 WKS FOR MALES;, Doses [Carcinogen]: DMBA-SINGLE DOSE OF 50 MG/KG BW AT 7 WKS OF AGE, DHPN- 0.2% IN WATER WKS 6-14 OF AGE (STUDY DURATION: 27 WKS FOR MALES;, Doses [Promoter]: 0, 0.2, 1% IN DIET (STUDY DURATION: 27 AND 36 WKS FOR MALES AND FEMALES RESPECTIVELY), Doses [Promoter]: 0, 0.2, 1% IN DIET (STUDY DURATION: 27 AND 36 WKS FOR MALES AND FEMALES RESPECTIVELY), Route [Carcinogen]: ORAL (DMBA, GAVAGE; DHPN, DRINKING WATER), Route [Promoter]: MATERNAL MILK TO 3 WKS OF AGE, DIET FROM WKS 3 TO 6 OF AGE, Species: RAT, Strain/Sex: F344/FEMALE, MALE); “liver: carcinoma/neoplastic nodules” (Carcinogen: DIETHYLNITROSAMINE, 55-18-5, Doses [Carcinogen]: 100 MG/KG ONCE, Doses [Promoter]: 0, 10 PPM (0.5 MG/KG/D) 2 MO POST CARCINOGEN DOSE AND CONTINUING FOR 8 MO (STUDY DURATION: 12 MO), Route [Carcinogen]: INTRAPERITONEAL, Route [Promoter]: ORAL, Species: RAT, Strain/Sex: CD-1/FEMALE); “liver: carcinoma/neoplastic nodules” (Carcinogen: DIETHYLNITROSAMINE, 55-18-5, Doses [Carcinogen]: 100 MG/KG ONCE, Doses [Promoter]: 0, 10 PPM (0.5 MG/KG/D) 2 MO POST CARCINOGEN DOSE AND CONTINUING FOR 8 MO (STUDY DURATION: 12 MO), Route [Carcinogen]: INTRAPERITONEAL, Route [Promoter]: ORAL, Species: RAT, Strain/Sex: CD-1/MALE); “liver: hepatocellular carcinoma” (Carcinogen: DIETHYLNITROSAMINE, 55-18-5, Doses [Carcinogen]: 200 MG/KG ONCE, Doses [Promoter]: 0, 160-210 UG/KG BW DAILY FROM RELEASE PELLETS FOR 30 WK BEGINNING 2 WK POST CARCINOGEN DOSE (STUDY DURATION: 30 WK), Route [Carcinogen]: INTRAPERITONEAL, Route [Promoter]: SUBCUTANEOUS, Species: RAT, Strain/Sex: WISTAR/FEMALE).
For the molecule `C=C/C=C\C1C2/C=C/CC(=O)O[C@@]34C[C@@H](C)[C@]5(O)C6C=C(C)C(=O)[C@@]6(O)CC(CO)=C[C@H]5[C@@H]3[C@@]4(C)COC(=O)C2C2C(/C=C/C=C/C=C/CCC)C12` (stereo partly specified), the outcome (Carcinogen: 7,12-DIMETHYLBENZ[A]ANTHRACENE, 57-97-6, Doses [Carcinogen]: 100 UG IN O.1 ML ACETONE, Doses [Promoter]: 0, 2 UG IN 0.1 ML OF METHANOL 2/WK FOR 16 WK BEGINNING 1 WK POST CARCINOGEN DOSE THEN 5 UG 2/WK FOR 13 WK (STUDY DURATIO, Route [Carcinogen]: DERMAL, Route [Promoter]: DERMAL, Species: MOUSE, Strain/Sex: CD-1/FEMALE) was “skin: tumor”.
`O=C(O)C(Cl)Cl`: the outcome is on record as “liver: adenoma” (Carcinogen: N-METHYL-N-NITROSOUREA, 684-93-5, Doses [Carcinogen]: 25 MG/KG IN STERILE SALINE ONCE, Doses [Promoter]: 0, 25 MMOL/L IN DRINKING WATER FOR 44 WK BEGINNING 2 WK POST CARCINOGEN DOSE (STUDY DURATION: 46 WK), Route [Carcinogen]: INTRAPERITONEAL, Route [Promoter]: ORAL, Species: MOUSE, Strain/Sex: B6C3F1/FEMALE); “liver: adenoma” (Carcinogen: N-METHYL-N-NITROSOUREA, 684-93-5, Doses [Carcinogen]: 25 MG/KG ONCE AT 15 D OF AGE, Doses [Promoter]: 0, 20 NMOL/L IN DRINKING WATER FOR 31 WK BEGINNING AT 7 WK OF AGE (STUDY DURATION: 31 WK), Route [Carcinogen]: INTRAPERITONEAL, Route [Promoter]: ORAL, Species: MOUSE, Strain/Sex: B6C3F1/FEMALE); “liver: adenoma” (Carcinogen: N-METHYL-N-NITROSOUREA, 684-93-5, Doses [Carcinogen]: 25 MG/KG ONCE AT 15 D OF AGE, Doses [Promoter]: 0, 20 NMOL/L IN DRINKING WATER FOR 52 WK BEGINNING AT 7 WK OF AGE (STUDY DURATION: 52 WK), Route [Carcinogen]: INTRAPERITONEAL, Route [Promoter]: ORAL, Species: MOUSE, Strain/Sex: B6C3F1/FEMALE).
Regarding `O=C1C=CC(=O)c2c(O)cccc21`, the outcome (Carcinogen: 7,12-DIMETHYLBENZ[A]ANTHRACENE, 57-97-6, Doses [Carcinogen]: 25 NMOL IN 0.2 ML ACETONE ONCE, Doses [Promoter]: 440, 880, 1760 NMOL/MOUSE 1/WK FOR 40 WK BEGINNING 2 WK POST CARCINOGEN DOSE (STUDY DURATION: 42 WK), Doses [Promoter]: 440, 880, 1760 NMOL/MOUSE 1/WK FOR 40 WK BEGINNING 2 WK POST CARCINOGEN DOSE (STUDY DURATION: 42 WK), Route [Carcinogen]: DERMAL, Route [Promoter]: DERMAL, Species: MOUSE, Strain/Sex: SENCAR/FEMALE) is given as “skin: papilloma”; the outcome (Carcinogen: 7,12-DIMETHYLBENZ[A]ANTHRACENE, 57-97-6, Doses [Carcinogen]: 25 NMOL IN 0.2 ML ACETONE ONCE, Doses [Promoter]: 1760 NMOL/MOUSE 2/WK FOR 40 WK BEGINNING 2 WK POST CARCINOGEN DOSE (STUDY DURATION: 42 WK), Route [Carcinogen]: DERMAL, Route [Promoter]: DERMAL, Species: MOUSE, Strain/Sex: SENCAR/FEMALE) was “skin: papilloma”; the outcome (Carcinogen: 7,12-DIMETHYLBENZ[A]ANTHRACENE, 57-97-6, Doses [Carcinogen]: 25 NMOL IN 0.2 ML ACETONE ONCE, Doses [Promoter]: 1760 NMOL/MOUSE 3/WK FOR 40 WK BEGINNING 2 WK POST CARCINOGEN DOSE (STUDY DURATION: 42 WK), Route [Carcinogen]: DERMAL, Route [Promoter]: DERMAL, Species: MOUSE, Strain/Sex: SENCAR/FEMALE) is given as “skin: papilloma”; the outcome (Carcinogen: 7,12-DIMETHYLBENZ[A]ANTHRACENE, 57-97-6, Doses [Carcinogen]: 25 NMOL IN 0.2 ML ACETONE ONCE, Doses [Promoter]: 1760 NMOL/MOUSE 3/WK FOR 60 WK BEGINNING 2 WK POST CARCINOGEN DOSE (STUDY DURATION: 60 WK), Route [Carcinogen]: DERMAL, Route [Promoter]: DERMAL, Species: MOUSE, Strain/Sex: SENCAR/FEMALE) was “skin: carcinoma”.
`Nc1ccc(Cc2ccc(N)cc2)cc1`: the outcome (Carcinogen: 2,2'-DIHYDROXY-N-NITROSODIPROPYLAMINE, 53609-64-6, Doses [Carcinogen]: 280 MG/100 G IN 0.5 ML SALINE ONCE, Doses [Promoter]: 0, 1000 PPM IN DIET FOR 19 WK (STUDY DURATION: 19 WK), Route [Carcinogen]: INTRAPERITONEAL, Route [Promoter]: ORAL, Species: RAT, Strain/Sex: WISTAR/MALE) is recorded as “thyroid: tumor” and the outcome (Carcinogen: N-BIS(2-HYDROXYPROPYL)NITROSAMINE, 53609-64-6, N-ETHYL-N-HYDROXYETHYLNITROSAMINE, 13147-25-6, 3,2'-DIMETHYL-4-AMINOB, Carcinogen: N-BIS(2-HYDROXYPROPYL)NITROSAMINE, 53609-64-6, N-ETHYL-N-HYDROXYETHYLNITROSAMINE, 13147-25-6, 3,2'-DIMETHYL-4-AMINOB, Doses [Carcinogen]: 1000 MG/KG IP IN SALINE ON DAY 1 AND 4, 1500 MG/KG IG IN DISTILLED WATER ON DAY 8 AND 11, 75 MG/KG SC IN CORN OIL ON D, Doses [Carcinogen]: 1000 MG/KG IP IN SALINE ON DAY 1 AND 4, 1500 MG/KG IG IN DISTILLED WATER ON DAY 8 AND 11, 75 MG/KG SC IN CORN OIL ON D, Doses [Promoter]: 0, 0.1% IN DIET BEGINNING 1 WK POST LAST CARCINOGEN DOSE AND CONTINUING FOR 12 WK (STUDY DURATION: 16 WK), Route [Carcinogen]: INTRAPERITONEAL, GAVAGE, SUBCUTANEOUS, Route [Carcinogen]: INTRAPERITONEAL, GAVAGE, SUBCUTANEOUS, Route [Promoter]: ORAL, Species: RAT, Strain/Sex: F344/MALE) is reported as “thyroid: adenoma, adenocarcinoma”.
